The values below come from patent US10029984B2, “Mono- or di-substituted indole derivatives as dengue viral replication inhibitors” (Janssen Pharmaceuticals, Inc., priority 2015, dated 2018).

One data set has as its system DENV-2 16681 strain. Put plainly: DENV-2 antiviral assay (eGFP-labeled virus in Vero cells). Type of data set: cell-based, Dengue virus. The note with it: DENV-2 16681 eGFP, MOI 0.5, 3 days, listed as 10B*. An outline of the steps:
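Vero cells were pre-plated with compound overnight, then infected with eGFP-labeled DENV-2 16681 at MOI 0.5 and incubated 3 days at 37 °C. eGFP fluorescence read by automated microscopy; 9-point 4-fold dilutions (25 μM–0.00038 μM final) in quadruplicate, EC50 by linear interpolation versus virus and cell controls.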

A further data set concerns DENV-1 strain TC974#666. Nature of the data set: Tetravalent RT-qPCR assay Protocol A, serotype 1. Type of data set: cell-based. The note with it: Dengue virus, DENV1, 72 h; RT-qPCR serotype 1 TC974#666, Vero cells, day 3. The protocol: (§1) The antiviral activity of the compounds of the invention was tested against DENV-1 strain TC974#666 (NCPV; Table 6), DENV-2 strain 16681 (Table 7), DENV-3 strain H87 (NCPV; Table 8) and DENV-4 strains H241 (NCPV; Table 9) in a RT-qPCR assay. Therefore, Vero cells were infected with either DENV-1, or -2, or -3, or -4 in the presence or absence of test compounds. At day 3 post-infection, the cells were lysed and cell lysates were used to prepare cDNA of both a viral target (the 3′UTR of DENV; table 2) and a cellular reference gene (β-actin, table 2). Subsequently, a duplex real time PCR was performed on a Lightcycler480 instrument. The generated Cp value is inversely proportional to the amount of RNA expression of these targets. Inhibition of DENV replication by a test compound result in a shift of Cp's for the 3′UTR gene. On the other hand, if a test compound is toxic to the cells, a similar effect on β-actin expression will be observed. The comparative ΔΔCp method is used to calculate EC50, which is based on the relative gene expression of the target gene (3′UTR) normalized with the cellular housekeeping gene (β-actin).
(§2) The culture medium consisted of minimal essential medium supplemented with 2% of heat-inactivated fetal calf serum, 0.04% gentamycin (50 mg/mL) and 2 mM of L-glutamine. Vero cells, obtained from ECACC, were suspended in culture medium and 75 μL/well was added in 96-well plates (10000 cells/well), which already contain the antiviral compounds. Typically, these plates contain a 4-fold serial dilution of 9 dilution steps of the test compound at 200 times the final concentration in 100% DMSO (500 nL; final concentration range: 25 μM-0.00038 μM). In addition, each plate contains wells which are assigned as virus controls (containing cells and virus in the absence of compound) and cell controls (containing cells in the absence of virus and compound). Once the cells were added in the plates, the plates were incubated in a fully humidified incubator (37° C., 5% CO2) until the next day. Then, DENV-1 strain TC974#666 at an MOI of 0.6, DENV-2 strain 16681 at an MOI of 0.01, DENV-3 strain H87 at an MOI of 1.0 and DENV-4 strains H241 at an MOI of 0.2 and SG/06K2270DK1/2005 at an MOI of 0.16, were added. Therefore, 25 μL of virus suspension was added to all the wells containing test compound and to the wells assigned as virus control. In parallel, 25 μL of culture medium was added to the cell controls. Next, the plates were incubated for 3 days in a fully humidified incubator (37° C., 5% CO2). After 3 days, the supernatant was removed from the wells and the cells were washed twice with ice-cold PBS (˜100 μL). The cell pellets within the 96-well plates were stored at −80° C. for at least 1 day. Next, RNA was extracted using the Cells-to-CT™ lysis kit, according to the manufacture's guideline (Applied Biosystems). The cell lysates can be stored at −80° C. or immediately used in the reverse transcription step.
(§3) In preparation of the reverse transcription step, mix A (table 3A) was prepared and 7.57 μL/well was dispensed in a 96-well plate. After addition of 5 μL of the cell lysates, a five minute denaturation step at 75° C. was performed (table 3B). Afterwards, 7.43 μL of mix B was added (table 3C) and the reverse transcription step was initiated (table 3D) to generate cDNA.
(§4) Finally, a RT-qPCR mix was prepared, mix C (table 4A), dispensed in 96-well LightCycler qPCR plates to which 3 μL of cDNA was added and the qPCR was performed according to the conditions in table 4B on a LightCycler 480. Using the LightCycler software and an in-house LIMS system, dose response curves for each compound were calculated and the half maximal effective concentration (EC50) and the half maximal cytotoxic concentration (CC50) were determined.

The next data set concerns DENV-3 strain H87. Nature of the data set: Tetravalent RT-qPCR assay Protocol A, serotype 3. It is filed as cell-based. The note with it: Dengue virus, DENV3, 72 h; RT-qPCR serotype 3 H87, Vero cells, day 3. As for the experimental part: as §1, §2, §3, §4
A short description of another data set: in vitro. Type of data set: cell-based. To be noted: African green monkey, CC50.

As for `COc1cc(NC(C(=O)c2c[nH]c3cc(OC)c(C)cc23)c2ccc(F)cc2OC)cc(S(C)(=O)=O)c1` (single isomer, unassigned) [Enantiomer 10B, 2-(4-fluoro-2-methoxyphenyl)-2-((3-methoxy-5-(methylsulfonyl)phenyl)amino)-1-(6-methoxy-5-methyl-1H-indol-3-yl)ethanone], the EC50 with DENV-2 16681 strain is 0.67 nM; with DENV-1 strain TC974#666, 4.46 nM; with DENV-3 strain H87, 55.4 nM. The compound also showed a CC50 at 3 days in “in vitro” of 5.14 µM.

As usually defined, the EC50 is the concentration giving half of the maximal effect. Read a high EC50 as a less potent agent. For orientation: CC50 means the concentration giving 50% cytotoxicity. A higher CC50 goes with better tolerance by the cells.
